In one experiment the test system is eNOS. The experiment in a line: eNOS mRNA expression in HAECs by real time PCR. The format is cell-based, human. To be noted: 10 μM ABA, 24 hours, P<0.02. (In qPCR the cycle at which signal appears reflects the starting amount.)
For a further experiment, the system named is 15-lipoxygenase (15-LOX). The experiment in a line: Aortic gene expression by real-time RT-PCR: 15-LOX. The note with it: day 84, ratio to β-actin. The format is in vivo, mice. As to the method: FIG. 4 are photos and graphs showing aortas collected on day 84 of dietary intervention. Representative photomicrographs (100×) of aortic root specimens from (A) control and (B) ABA-fed mice. (C) Analysis of lumenal areas and (D) tunica media areas were performed with aortic cross-sections using Image Pro Plus software. (E) Aortic thickness was analyzed as a ratio of the intima to the media. Gene expression in the aorta of (F) endothelial nitric oxide synthase (eNOS) and (G) 15-lipoxygenase (15-LOX) were measured as a ratio to the house-keeping gene β-actin. Data were analyzed as a completely randomized design.
Total RNA was isolated from aortas using the RNA isolation Minikit (Qiagen) according to the manufacturer's instructions. Total RNA (1 μg) was used to generate a complementary DNA (cDNA) template using the iScript cDNA Synthesis Kit (Bio-Rad, Hercules, Calif.). […] Each gene amplicon was purified with the MiniElute PCR Purification Kit (Qiagen) and quantitated on an agarose gel by using a DNA mass ladder (Promega). […]
(§1) Complementary DNA (cDNA) concentrations for genes of interest were examined by real-time quantitative PCR using an iCycler IQ System and the iQ SYBR green supermix (Bio-Rad). […] Results are presented as a starting quantity of target cDNA (picograms) per microgram of total RNA. […]

Experiment [1] deals with vascular smooth muscle cells and primary human monocytes. The note with it: stimulated in culture for 6 hours, Magnone et al., 2009; cited from earlier work.
For another experiment, the system named is pancreatic β-cells. To be noted: Bruzzone et al., 2008; cited from earlier work.
Experiment [2] relates to vascular cell adhesion molecule 1 (VCAM-1). The experiment in a line: Aortic gene expression by real-time RT-PCR: VCAM-1. The note with it: P=0.07. The format is in vivo, mice. As to the method:
(§2) FIG. 6 are graphs showing that ABA decreases immune cell infiltration in aortas of ApoE−/− mice and reduces pro-inflammatory gene expression. ApoE −/− mice were fed high fat diets created with or without 100 mg/kg diet racemic abscisic acid (ABA). (A) Infiltration of F4/80^+CD11b^+ macrophages and CD4^+ T-cells into the aorta were assessed with flow cytometry. Gene expression in the aorta of pro-inflammatory markers (B) vascular cell adhesion molecule 1 (VCAM-1), (C) monocyte chemoattractant protein 1 (MCP-1), (D) E-selectin, (F) peroxisome proliferator-activated receptor γ (PPAR γ), and (G) CD36 were measured as a ratio to the housekeeping gene β-actin. (H) MCP-1 protein concentrations (pg/mL) were measured by ELISA. Data were analyzed as a completely randomized design.
(§3) Total RNA was isolated from aortas using the RNA isolation Minikit (Qiagen) according to the manufacturer's instructions. […] Each gene amplicon was purified with the MiniElute PCR Purification Kit (Qiagen) and quantitated on an agarose gel by using a DNA mass ladder (Promega). […]
as §1

In another experiment the test system is db/db mice. The note with it: Guri et al., cited from earlier work.
A short description of experiment [3]: FPLC separation of plasma lipoproteins. The format is in vivo. The note with it: ApoE-deficient mice, FIG. 2. The procedure: FIG. 2 is a graph showing fast performance liquid chromatography (FPLC) separation of plasma lipoproteins performed on a Superose 6 column using buffer containing 0.15M NaCl, 0.01M Na2HPO4 and 1 mM EDTA at a flow rate of 0.5 ml/min. Forty 0.5 ml fractions were collected and cholesterol was measured in fractions 10-40. Fractions 15-20 contain VLDL, fractions 21-27 contain LDL and fractions 28-34 contain HDL.
Plasma cholesterol and triglyceride levels were measured using kits from Raichem (San Diego, Calif.) adapted for microtiter plate assays. Plasma free fatty acids were measured using the NEFA-HR(2) kit from Wako. Fast performance liquid chromatography (FPLC) separation of plasma lipoproteins was performed on a Superose 6 column using buffer containing 0.15M NaCl, 0.01M Na2HPO4 and 1 mM EDTA at a flow rate of 0.5 ml/min. Forty 0.5 ml fractions were collected and cholesterol was measured in fractions 10-40. Fractions 15-20 contain VLDL, fractions 21-27 contain LDL and fractions 28-34 contain HDL.

The test system of a further experiment is E-selectin. Briefly: Aortic gene expression by real-time RT-PCR: E-selectin. The note with it: P=0.20. Type of experiment: in vivo, mice. The procedure:
as §2, §3, §1

Experiment [4] relates to peroxisome proliferator-activated receptor γ (PPAR γ). Briefly: Aortic gene expression by real-time RT-PCR: PPAR γ and responsive genes. The format is in vivo, mice. The note with it: day 84. The procedure:
as §2, §3, §1

On to `CC1=CC(=O)CC(C)(C)C1(O)/C=C/C(C)=C\C(=O)O` (racemic) [ABA, abscisic acid], for which the “eNOS mRNA levels vs vehicle” value in the experiment with eNOS was “significantly (P<0.02) increased”. For the same molecule, in the experiment with 15-lipoxygenase (15-LOX), the “Aortic expression of 15-lipoxygenase mRNA vs control” value was “significantly elevated”. Moreover, in experiment [1], the MCP-1 result is on record as “increases” and the MMP-9 result is “increases”. For the same molecule, the “Intracellular levels of cAMP” value with pancreatic β-cells is “increases intracellular levels of cAMP”. The “VCAM-1 mRNA expression in the aortic roots vs control” value in experiment [2] was “reduced, though not to statistical significance”. For the same molecule, in the experiment with db/db mice (db/db mice, 2007 and 2008), the Glucose tolerance entry is given as “improved glucose tolerance”. Moreover, in the experiment on db/db mice (obese db/db mice, 2008), the “Macrophage infiltration into white adipose tissue” value is “significantly reduces macrophage infiltration” and the “Reduction in MCP-1 expression in the adipose tissue stromal-vascular fraction” value is recorded as “approximately 15 fold”. The “FPLC lipoprotein cholesterol profile vs control diet” value in experiment [3] was “slight shift in the profiles to lower VLDL and higher LDL and HDL”. Further, in the experiment on E-selectin, the “E-selectin mRNA expression in the aortic roots vs control” value was “reduced, though not to statistical significance”. Moreover, the “Expression of PPAR γ or its responsive genes in the aorta vs control” value in [4] is on record as “no differences”.

These data come from US20110054033A1, “METHODS OF USING ABSCISIC ACID FOR AMELIORATING HYPERTENSION AND VASCULAR INFLAMMATION” (Virginia Tech Intellectual Properties, Inc., priority 2009, published 2011).
